Patent US9192656B2, “Methods and compositions for the treatment of cancer” (QUINTESSENCE BIOSCIENCES, INC., priority 2006, dated 2015)

Legend:
[1] = system: human pancreatic cancer cell line (B×PC-3); test: In vivo inhibition of tumor growth, BxPC-3 xenograft; set-up: species or system human tumor cells in nude mice; conditions: Example 5, Table 9, RNase 1 15 mg/kg qd×5, gemcite 60 mg/kg twice a week
Protocol: (§1) Cells from a non-small cell lung cancer cell line (A549) were grown in nine T175 flasks in F12K media and 10% fetal calf serum until the cells were confluent. 4.5×10^6 cells (in 100 microliters) were injected into the right rear flank of 4-5 week old male homozygous (nu/nu) nude mice (Harlan, Madison Wis.). Tumors were allowed to grow to an average size of ≧75 mm^3 before treatments were initiated. Animals of each tumor type, with the properly sized tumors, were divided into treatment groups, including one set of animals treated weekly with vehicle (phosphate buffered saline, PBS). The vehicle and the test agents were all administered by intraperitoneal injection. Each animal was weighed twice a week during treatment. The tumors were measured twice weekly using calipers. Tumor volume (mm^3) was determined by using the formula for an ellipsoid sphere: […]
(§2) The percent tumor growth inhibition (% TGI) is calculated by: […]
(§3) The xenograft model of this example was set up as in the previous example except that a human pancreatic cancer cell line (B×PC-3) was used. The efficacy of wild type human RNase 1 is shown relative to gemcite. The RNase 1 was administered at 15 mg per kg of body weight of the animal five times per week (15 mg/kg qd×5), while the gemcite was used at 60 mg/kg twice a week. The value of n represents the number of animals in the specific treatment arm of the experiment.
as §3, with “shown.” for “shown relative to gemcite.”, “three different doses: (1) 30” for “15”, “once” for “five times”, “(30” for “(15”, “1×wk), (2) 75” for “qd×5), while the gemcite was used at 60”, “1×wk, or (3) 150 mg/kg 1×wk.” for “twice a week.”

[2] = system: non-small cell lung cancer cell line (A549); test: In vivo inhibition of tumor growth, A549 xenograft; set-up: species or system human tumor cells in nude mice; conditions: for Starting volume: at start
Protocol: Cells from a non-small cell lung cancer cell line (A549) were grown in nine T175 flasks in F12K media and 10% fetal calf serum until the cells were confluent. 4.5×10^6 cells (in 100 microliters) were injected into the right rear flank of 4-5 week old male homozygous (nu/nu) nude mice (Harlan, Madison Wis.). Tumors were allowed to grow to an average size of ≧75 mm^3 before treatments were initiated. Animals of each tumor type, with the properly sized tumors, were divided into treatment groups, including one set of animals treated weekly with vehicle (phosphate buffered saline, PBS). The vehicle and the test agents were all administered by intraperitoneal injection. Each animal was weighed twice a week during treatment. The tumors were measured twice weekly using calipers. Tumor volume (mm^3) was determined by using the formula for an ellipsoid sphere:
[formula] The efficacy of wild type human RNase 1 is shown relative to cisplatin. The RNase 1 was administered at 75 mg per kg of body weight of the animal once a week (75 mg/kg 1×wk), while the cisplatin was used at 6 mg/kg once a week. The value of n represents the number of animals in the specific treatment arm of the experiment.
as §2
The xenograft model of this example was set up with the human non-small cell lung cancer cell line (A549) as in the previous examples. The efficacy of wild type human RNase 1 is shown relative to tarceva. The RNase 1 was administered at 75 mg per kg of body weight of the animal (75 mg/kg 1×wk) or 150 mg/kg 1×wk. Tarceva was given orally with doses of 50 mg/kg twice a week. The value of n represents the number of animals in the specific treatment arm of the experiment.

[3] = system: non-small cell lung cancer; test: Xenograft models of non-small cell lung cancer (RNase 1 variants); type: in vivo, mice; conditions: for (Final − start)/Control: relative to vehicle; for Starting volume: tumor volume at start; for tumor growth inhibition (in words): xenograft model of non-small cell lung cancer
Protocol: as §1, §2

[4] = system: human breast cancer cell line (MDA-MB-231); test: In vivo inhibition of tumor growth, MDA-MB-231 xenograft; set-up: species or system human tumor cells in nude mice; conditions: Example 10, Table 14, female mice, RNase 1 75 mg/kg 1×wk, doxorubicin 3 mg/kg once per week
Protocol: as §1, §2
The xenograft model of this example was set up as in the previous example except that a human breast cancer cell line (MDA-MB-231) and female mice were used. The efficacy of wild type human RNase 1 is shown relative to doxorubicin. The RNase 1 was administered at 75 mg per kg of body weight of the animal once per week (75 mg/kg 1×wk), while the doxorubicin was given at 3 mg/kg once per week. The value of n represents the number of animals in the specific treatment arm of the experiment.

[5] = Example 6, Table 10, orally 50 mg/kg twice a week
[6] = Example 3, Table 7, i.p., RNase 1 75 mg/kg 1×wk, cisplatin 6 mg/kg once a week

Molecule: Nc1ccn([C@@H]2O[C@H](CO)[C@@H](O)C2(F)F)c(=O)n1 [Gemcite, reference compound]
- % TGI [1]: 60%
- (Final − start) [1]: 427 mm^3
- (Final − start)/Control [1]: 0.40
- Final volume [1]: 505 mm^3
- Starting volume ([1]; at start): 78 mm^3

Molecule: C#Cc1cccc(Nc2ncnc3cc(OCCOC)c(OCCOC)cc23)c1 [Tarceva, N-(3-ethynylphenyl)-6,7-bis(2-methoxyethoxy)quinazolin-4-amine, reference compound]
- % TGI [2, 5]: 77%
- (Final − start) [2, 5]: 181 mm^3
- (Final − start)/Control [2, 5]: 0.23
- Final volume [2, 5]: 265 mm^3
- Starting volume [2, 5]: 84 mm^3

Molecule: N.N.[Cl][Pt][Cl] [cisplatin, Cisplatin, reference compound]
- % TGI ([3]; Table 2, FIG. 1): 68%
- (Final − start) ([3]; Table 2, FIG. 1): 290 mm^3
- Final volume ([3]; Table 2, FIG. 1): 369 mm^3
- (Final − start)/Control ([3]; Table 2, FIG. 1): 0.32
- Starting volume ([3]; Table 2, FIG. 1): 79 mm^3
- % TGI [2, 6]: 81%
- (Final − start) [2, 6]: 58 mm^3
- (Final − start)/Control [2, 6]: 0.19
- Final volume [2, 6]: 130 mm^3
- Starting volume [2, 6]: 72 mm^3

Molecule: COc1cccc2c1C(=O)c1c(O)c3c(c(O)c1C2=O)C[C@@](O)(C(=O)CO)C[C@@H]3O[C@H]1C[C@H](N)[C@H](O)[C@H](C)O1 [doxorubicin, reference compound]
- % TGI [4]: 84%
- (Final − start) [4]: 22 mm^3
- (Final − start)/Control [4]: 0.16
- Final volume [4]: 86 mm^3
- Starting volume ([4]; at start): 64 mm^3

B1: G38R/R39D/L86E/N88R/G89D/R91D RNase 1: variant of human RNase 1 with substitutions G38R, R39D, L86E, N88R, G89D, R91D (protein)
chain: KESRAKKFQRQHMDSDSSPSSSSTYCNQMMRRRNMTQRDCKPVNTFVHEPLVDVQNVCFQEKVTCKNGQGNCYKSNSSMHITDCRETRDSDYPNCAYRTSPKERHIIVACEGSPYVPVHFDASVEDST
- % TGI ([3]; Table 2, FIG. 1): 28%
- (Final − start) ([3]; Table 2, FIG. 1): 647 mm^3
- Final volume ([3]; Table 2, FIG. 1): 723 mm^3
- (Final − start)/Control ([3]; Table 2, FIG. 1): 0.72
- Starting volume ([3]; Table 2, FIG. 1): 76 mm^3
- tumor growth inhibition (in words) [3]: displayed tumor growth inhibition

B2: R4C/K7A/G38R/R39D/L86E/N88R/G89D/R91D/V118C RNase 1: variant of human RNase 1 with substitutions R4C, K7A, G38R, R39D, L86E, N88R, G89D, R91D, V118C (protein)
chain: KESCAKAFQRQHMDSDSSPSSSSTYCNQMMRRRNMTQRDCKPVNTFVHEPLVDVQNVCFQEKVTCKNGQGNCYKSNSSMHITDCRETRDSDYPNCAYRTSPKERHIIVACEGSPYVPCHFDASVEDST
- % TGI ([3]; Table 4, FIG. 3): 36%
- (Final − start) ([3]; Table 4, FIG. 3): 478 mm^3
- Final volume ([3]; Table 4, FIG. 3): 552 mm^3
- (Final − start)/Control ([3]; Table 4, FIG. 3): 0.36
- Starting volume ([3]; Table 4, FIG. 3): 74 mm^3
- tumor growth inhibition (in words) [3]: demonstrated measurable tumor growth inhibition

B3: L86E/N88R/G89D/R91D RNase 1: variant of human RNase 1 with substitutions L86E, N88R, G89D, R91D (protein)
chain: KESRAKKFQRQHMDSDSSPSSSSTYCNQMMRRRNMTQGRCKPVNTFVHEPLVDVQNVCFQEKVTCKNGQGNCYKSNSSMHITDCRETRDSDYPNCAYRTSPKERHIIVACEGSPYVPVHFDASVEDST
- % TGI ([3]; Table 2, FIG. 1): 40%
- (Final − start) ([3]; Table 2, FIG. 1): 540 mm^3
- Final volume ([3]; Table 2, FIG. 1): 624 mm^3
- (Final − start)/Control ([3]; Table 2, FIG. 1): 0.60
- Starting volume ([3]; Table 2, FIG. 1): 84 mm^3
- tumor growth inhibition (in words) [3]: displayed tumor growth inhibition

B4: R4C/G38R/R39D/L86E/N88R/G89D/R91D/V118C RNase 1: variant of human RNase 1 with substitutions R4C, G38R, R39D, L86E, N88R, G89D, R91D, V118C (protein)
chain: KESCAKKFQRQHMDSDSSPSSSSTYCNQMMRRRNMTQRDCKPVNTFVHEPLVDVQNVCFQEKVTCKNGQGNCYKSNSSMHITDCRETRDSDYPNCAYRTSPKERHIIVACEGSPYVPCHFDASVEDST
- % TGI ([3]; Table 3, FIG. 2): 48%
- (Final − start) ([3]; Table 3, FIG. 2): 1022 mm^3
- Final volume ([3]; Table 3, FIG. 2): 1130 mm^3
- (Final − start)/Control ([3]; Table 3, FIG. 2): 0.52
- Starting volume ([3]; Table 3, FIG. 2): 108 mm^3
- tumor growth inhibition (in words) [3]: impacted tumor growth
